The values below come from patent US20240279220A1, “INDOLE COMPOUNDS AND METHODS OF USE” (Genzyme Corporation, priority 2021, published 2024).

The subject of the assay is NBD1/3D. Kind of assay: Aggregation analysis using differential static light scattering (DSLS), NBD1 thermal stability. It counts as binding, Human. To be noted: ΔTagg versus DMSO control; compound at 100 μM. A digest of the protocol: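 Thermal stabilisation reported as ΔTagg, i.e. aggregation temperature relative to averaged DMSO wells. Tagg came from the inflection of differential static light scattering imaged 25–70 °C while NBD1 (0.2 mg/ml, Tris pH 7.6 buffer containing ATP, MgCl2, DTT, glycerol) was ramped 1 °C/min.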

`CO[C@]1(C)C[C@@](c2cc(F)cc(CCC(=O)O)c2)(c2c[nH]c(-c3cc(Oc4c(F)cc5[nH]ccc5c4S(C)(=O)=O)ccc3F)n2)C1` [Example 72, 3-(3-Fluoro-5-((1r,3r)-1-(2-(2-fluoro-5-((6-fluoro-4-(methylsulfonyl)-1H-indol-5-yl)oxy)phenyl)-1H-imidazol-5-yl)-3-methoxy-3-methylcyclobutyl)phenyl)propanoic acid]: the “DSLS NBD1/3D Human Stability delta-T (° C.) @ 100 (μM)” value (“DSLS NBD1/3D Human Stability delta-T” for short) is given as “A (A: T ≥ 10° C.)”.

`CC(O)(c1cccc(CC2SC(=O)NC2=O)c1)c1cnc(-c2cccc(Oc3c(F)cc4[nH]ccc4c3F)c2)[nH]1` (stereo not shown) [Example 211, 5-(3-(1-(2-(3-((4,6-Difluoro-1H-indol-5-yl)oxy)phenyl)-1H-imidazol-5-yl)-1-hydroxyethyl)benzyl)thiazolidine-2,4-dione]: the “DSLS NBD1/3D Human Stability delta-T” value is “B (B: 5-10° C.)”.

In the case of `Cc1nc(-c2cc(Oc3c(F)cc4[nH]ccc4c3C)ccc2F)[nH]c1C(O)c1cccc(CCC(=O)O)c1` (stereo not shown) [Example 217, 3-(3-((2-(2-Fluoro-5-((6-fluoro-4-methyl-1H-indol-5-yl)oxy)phenyl)-4-methyl-1H-imidazol-5-yl)(hydroxy)methyl)phenyl)propanoic acid], the “DSLS NBD1/3D Human Stability delta-T” value is listed as “B (B: 5-10° C.)”.

`CC(CO)(c1cccc(CCC(=O)O)c1)c1cnc(-c2cc(Oc3c(F)cc4[nH]ccc4c3S(C)(=O)=O)ccc2F)[nH]1` (stereo not shown) [Example 68, 3-(3-(2-(2-(2-Fluoro-5-((6-fluoro-4-(methylsulfonyl)-1H-indol-5-yl)oxy)phenyl)-1H-imidazol-5-yl)-1-hydroxypropan-2-yl)phenyl)propanoic acid]: the “DSLS NBD1/3D Human Stability delta-T” value is “A (A: T ≥ 10° C.)”.

Regarding `CC(O)(c1cccc(CCC(=O)O)c1)c1cnc(-c2cccc(Oc3c(F)cc4[nH]ccc4c3S(=O)(=O)CC(F)F)c2)[nH]1` (stereo not shown) [Example 28, 3-(3-(1-(2-(3-((4-((2,2-difluoroethyl)sulfonyl)-6-fluoro-1H-indol-5-yl)oxy)phenyl)-1H-imidazol-5-yl)-1-hydroxyethyl)phenyl)propanoic acid], the “DSLS NBD1/3D Human Stability delta-T” value is “A (A: T ≥ 10° C.)”.

With `Cc1c(Oc2ccc(F)c(-c3ncc(C4(c5cccc(CCC(=O)O)c5)CCOC(C)C4)[nH]3)c2)c(F)cc2[nH]ccc12` (single isomer, unassigned) [Example 151, 3-(3-(4-(2-(2-fluoro-5-((6-fluoro-4-methyl-1H-indol-5-yl)oxy)phenyl)-1H-imidazol-5-yl)-2-methyltetrahydro-2H-pyran-4-yl)phenyl)propanoic acid], the “DSLS NBD1/3D Human Stability delta-T” value was “B (B: 5-10° C.)”.

On to `Cc1c(Oc2ccc(F)c(-c3ncc(C(C)c4cccc([C@@H]5C[C@H]5C(=O)O)c4F)[nH]3)c2)c(F)cc2[nH]ccc12` (relative stereo) [Example 139E, trans-2-(2-fluoro-3-(1-(2-(2-fluoro-5-((6-fluoro-4-methyl-1H-indol-5-yl)oxy)phenyl)-1H-imidazol-5-yl)ethyl)phenyl)cyclopropane-1-carboxylic acid], for which the “DSLS NBD1/3D Human Stability delta-T” value is “B (B: 5-10° C.)”.

For `Cc1c(Oc2ccc(F)c(-c3nnc(Cc4cccc(N5CC(C(=O)O)C5)c4)[nH]3)c2)c(F)cc2[nH]ccc12` [Example 249, 1-(3-((5-(2-Fluoro-5-((6-fluoro-4-methyl-1H-indol-5-yl)oxy)phenyl)-4H-1,2,4-triazol-3-yl)methyl)phenyl)azetidine-3-carboxylic acid], the “DSLS NBD1/3D Human Stability delta-T” value is “C (C: ≤5° C.)”.

Take `CC(O)(c1cccc(CCC(=O)O)c1)c1cnc(-c2cc(Oc3cc(F)c4[nH]ccc4c3)ccc2F)[nH]1` (stereo not shown) [Example 196, 3-(3-(1-(2-(2-fluoro-5-((7-fluoro-1H-indol-5-yl)oxy)phenyl)-1H-imidazol-5-yl)-1-hydroxyethyl)phenyl) propanoic acid]: the “DSLS NBD1/3D Human Stability delta-T” value is reported as “B (B: 5-10° C.)”.

Take `Cc1c(Oc2ccc(F)c(-c3ncc(C(OCCO)c4cccc(CCC(=O)O)c4)[nH]3)c2)c(F)cc2[nH]ccc12` (stereo not shown) [Example 235, 3-(3-((2-(2-fluoro-5-((6-fluoro-4-methyl-1H-indol-5-yl)oxy)phenyl)-1H-imidazol-5-yl)(2-hydroxyethoxy)methyl)phenyl) propanoic acid]: the “DSLS NBD1/3D Human Stability delta-T” value is “B (B: 5-10° C.)”.

Take `CC(c1coc(-c2cc(Oc3c(F)cc4[nH]ccc4c3S(C)(=O)=O)ccc2F)n1)c1cccc(CCC(=O)O)c1F` (single isomer, unassigned) [Example 43B, 3-(2-fluoro-3-(1-(2-(2-fluoro-5-((6-fluoro-4-(methylsulfonyl)-1H-indol-5-yl)oxy)phenyl)oxazol-4-yl)ethyl)phenyl)propanoic acid]: the “DSLS NBD1/3D Human Stability delta-T” value is given as “C (C: ≤5° C.)”.

`CC(C)(C)NCc1c(Oc2cccc(-c3ncc(C(O)c4cccc(CCC(=O)O)c4)[nH]3)c2)ccc2[nH]ccc12` (stereo not shown) [Example 263, 3-(3-((2-(3-((4-((tert-Butylamino)methyl)-1H-indol-5-yl)oxy)phenyl)-1H-imidazol-5-yl)(hydroxy)methyl)phenyl)propanoic acid]: the “DSLS NBD1/3D Human Stability delta-T” value was “A (A: T ≥ 10° C.)”.

On to `COC(=O)/C=C/c1cccc(Cn2ccc(-c3cccc(Oc4ccc5[nH]ccc5c4CO)c3)n2)c1` [Example 7, Methyl (E)-3-(3-((3-(3-((4-(hydroxymethyl)-1H-indol-5-yl)oxy)phenyl)-1H-pyrazol-1-yl)methyl)phenyl)acrylate], for which the “DSLS NBD1/3D Human Stability delta-T” value is “C (C: ≤5° C.)”.

Turning to `CC1(C)COC(c2cccc(CCC(=O)O)c2)(c2cnc(-c3cc(Oc4c(F)c(F)c5[nH]ccc5c4F)ccc3F)[nH]2)OC1` [Example 227, 3-(3-(2-(2-(2-Fluoro-5-((4,6,7-trifluoro-1H-indol-5-yl)oxy)phenyl)-1H-imidazol-5-yl)-5,5-dimethyl-1,3-dioxan-2-yl)phenyl)propanoic acid], the “DSLS NBD1/3D Human Stability delta-T” value is “A (A: T ≥ 10° C.)”.

Regarding `CS(=O)(=O)c1c(Oc2cccc(-c3ncn(Cc4cccc(CCC(N)=O)c4)n3)c2)c(F)cc2[nH]ccc12` [Example 34, 3-(3-((3-(3-((6-Fluoro-4-(methylsulfonyl)-1H-indol-5-yl)oxy)phenyl)-1H-1,2,4-triazol-1-yl)methyl)phenyl)propanamide], the “DSLS NBD1/3D Human Stability delta-T” value is “B (B: 5-10° C.)”.

With `O=C(O)CCc1cc(F)cc(C(O)c2c[nH]c(-c3cc(Oc4c(F)cc5[nH]ccc5c4F)ccc3F)n2)c1` (stereo not shown) [Example 178, 3-(3-((2-(5-((4,6-difluoro-1H-indol-5-yl)oxy)-2-fluorophenyl)-1H-imidazol-4-yl)(hydroxy)methyl)-5-fluorophenyl)propanoic acid], the “DSLS NBD1/3D Human Stability delta-T” value is recorded as “B (B: 5-10° C.)”.

`O=C(O)CCc1cc(F)cc(Cc2cnc(-c3cc(Oc4c(F)cc5[nH]ccc5c4CC(F)(F)F)ccc3F)[nH]2)c1` [Example 113, 3-(3-fluoro-5-((2-(2-fluoro-5-((6-fluoro-4-(2,2,2-trifluoroethyl)-1H-indol-5-yl)oxy)phenyl)-1H-imidazol-5-yl)methyl)phenyl)propanoic acid]: the “DSLS NBD1/3D Human Stability delta-T” value was “B (B: 5-10° C.)”.

For `O=C(O)CCc1cccc(C2(c3cnc(-c4cc(Oc5c(F)cc6[nH]ccc6c5F)ccc4F)[nH]3)CC2)c1` [Example 143, 3-(3-(1-(2-(5-((4,6-difluoro-1H-indol-5-yl)oxy)-2-fluorophenyl)-1H-imidazol-5-yl)cyclopropyl)phenyl)propanoic acid], the “DSLS NBD1/3D Human Stability delta-T” value is “B (B: 5-10° C.)”.

For the molecule `CC(CC(=O)O)c1cccc([C@H](O)c2cnc(-c3cccc(Oc4c(F)cc5[nH]ccc5c4F)c3)[nH]2)c1` (stereo partly drawn) [Example 182, 3-(3-((S)-(2-(3-((4,6-Difluoro-1H-indol-5-yl)oxy)phenyl)-1H-imidazol-5-yl)(hydroxy)methyl)phenyl)butanoic acid], the “DSLS NBD1/3D Human Stability delta-T” value is “B (B: 5-10° C.)”.

Regarding `COC(=O)C(F)Cc1cccc(C(O)c2cnc(-c3cccc(Oc4ccc5[nH]ccc5c4C)c3)[nH]2)c1` (stereo not shown) [Example 173, Methyl 2-fluoro-3-(3-(hydroxy(2-(3-((4-methyl-1H-indol-5-yl)oxy)phenyl)-1H-imidazol-5-yl)methyl)phenyl)propanoate], the “DSLS NBD1/3D Human Stability delta-T” value is “B (B: 5-10° C.)”.

Consider `CC(c1cnc(-c2cc(Oc3c(F)cc4[nH]ccc4c3F)ccc2F)[nH]1)c1cccc(CC(=O)O)c1F` (single isomer, unassigned) [Example 131B, 2-(3-(1-(2-(5-((4,6-difluoro-1H-indol-5-yl)oxy)-2-fluorophenyl)-1H-imidazol-5-yl)ethyl)-2-fluorophenyl)acetic acid], for which the “DSLS NBD1/3D Human Stability delta-T” value is “B (B: 5-10° C.)”.

Regarding `CS(=O)(=O)c1c(Oc2ccc(F)c(-c3nc(C4(c5cccc(CCC(=O)O)c5)CC4)co3)c2)c(F)cc2[nH]ccc12` [Example 81, 3-(3-(1-(2-(2-Fluoro-5-((6-fluoro-4-(methylsulfonyl)-1H-indol-5-yl)oxy)phenyl)oxazol-4-yl)cyclopropyl)phenyl)propanoic acid], the “DSLS NBD1/3D Human Stability delta-T” value is “B (B: 5-10° C.)”.

For `CC(O)(c1cccc(CCC(=O)O)c1)c1c[nH]c(-c2cc(Oc3c(F)cc4[nH]ccc4c3C3CC3)ccc2F)n1` (stereo not shown) [Example 193, 3-(3-(1-(2-(5-((4-cyclopropyl-6-fluoro-1H-indol-5-yl)oxy)-2-fluorophenyl)-1H-imidazol-4-yl)-1-hydroxyethyl)phenyl) propanoic acid], the “DSLS NBD1/3D Human Stability delta-T” value is given as “B (B: 5-10° C.)”.

For the molecule `CC(O)(c1cccc(CCC(=O)O)c1)c1cnc(-c2cc(Oc3c(F)cc4[nH]ccc4c3C(F)F)ccc2F)[nH]1` (stereo not shown) [Example 191, 3-(3-(1-(2-(5-((4-(difluoromethyl)-6-fluoro-1H-indol-5-yl)oxy)-2-fluorophenyl)-1H-imidazol-5-yl)-1-hydroxyethyl)phenyl) propanoic acid], the “DSLS NBD1/3D Human Stability delta-T” value is on record as “B (B: 5-10° C.)”.

Turning to `NCc1c(CCC(=O)O)cccc1Cc1cnc(-c2cc(Oc3c(F)cc4[nH]ccc4c3F)ccc2F)[nH]1` [Example 141, 3-(2-(Aminomethyl)-3-((2-(5-((4,6-difluoro-1H-indol-5-yl)oxy)-2-fluorophenyl)-1H-imidazol-5-yl)methyl)phenyl)propanoic acid], the “DSLS NBD1/3D Human Stability delta-T” value is on record as “C (C: ≤5° C.)”.
